Test results from ChEMBL document CHEMBL1147101, “Development and persistence of antimicrobial resistance in Pseudomonas aeruginosa: a longitudinal observation in mechanically ventilated patients” (Antimicrob Agents Chemother, 2007).
Active and inactive are the calls of the source. The rule behind the calls is not given here.

How the values were obtained:
Format in all cases: functional, organism-based
Conditions in all cases: Trachea
Pseudomonas aeruginosa [1] = assay: Antimicrobial activity against Pseudomonas aeruginosa 24E1 tracheal isolates from mechanically ventilated chronic respiratory insufficiency patient
Pseudomonas aeruginosa [2] = assay: Antimicrobial activity against Pseudomonas aeruginosa 24D5 tracheal isolates from mechanically ventilated chronic respiratory insufficiency patient
Pseudomonas aeruginosa [3] = assay: Antimicrobial activity against Pseudomonas aeruginosa 65.18-2 tracheal isolates from mechanically ventilated tuberculosis patient
Pseudomonas aeruginosa [4] = assay: Antimicrobial activity against Pseudomonas aeruginosa 5F8 tracheal isolates from mechanically ventilated chronic respiratory insufficiency patient
Pseudomonas aeruginosa [5] = assay: Antimicrobial activity against Pseudomonas aeruginosa 2A2 tracheal isolates from mechanically ventilated tuberculosis patient
Pseudomonas aeruginosa [6] = assay: Antimicrobial activity against Pseudomonas aeruginosa 65.38-3 tracheal isolates from mechanically ventilated tuberculosis patient
Pseudomonas aeruginosa [7] = assay: Antimicrobial activity against Pseudomonas aeruginosa 3D10 tracheal isolates from mechanically ventilated chronic respiratory insufficiency patient
Pseudomonas aeruginosa [8] = assay: Antimicrobial activity against Pseudomonas aeruginosa 65.36-2 tracheal isolates from mechanically ventilated tuberculosis patient
Pseudomonas aeruginosa [9] = assay: Antimicrobial activity against Pseudomonas aeruginosa 9A7 tracheal isolates from mechanically ventilated chronic respiratory insufficiency patient
Pseudomonas aeruginosa [10] = assay: Antimicrobial activity against Pseudomonas aeruginosa 2B5 tracheal isolates from mechanically ventilated tuberculosis patient
Pseudomonas aeruginosa [11] = assay: Antimicrobial activity against Pseudomonas aeruginosa 24E2 tracheal isolates from mechanically ventilated chronic respiratory insufficiency patient
Pseudomonas aeruginosa [12] = assay: Antimicrobial activity against Pseudomonas aeruginosa 15G10 tracheal isolates from mechanically ventilated chronic respiratory insufficiency patient
Pseudomonas aeruginosa [13] = assay: Antimicrobial activity against Pseudomonas aeruginosa 24E6 tracheal isolates from mechanically ventilated chronic respiratory insufficiency patient
Pseudomonas aeruginosa [14] = assay: Antimicrobial activity against Pseudomonas aeruginosa 15G2 tracheal isolates from mechanically ventilated chronic respiratory insufficiency patient
Pseudomonas aeruginosa [15] = assay: Antimicrobial activity against Pseudomonas aeruginosa 23C5 tracheal isolates from mechanically ventilated chronic respiratory insufficiency patient
Pseudomonas aeruginosa [16] = assay: Antimicrobial activity against Pseudomonas aeruginosa 19E12 tracheal isolates from mechanically ventilated chronic respiratory insufficiency patient
Pseudomonas aeruginosa [17] = assay: Antimicrobial activity against Pseudomonas aeruginosa 19C2 tracheal isolates from mechanically ventilated chronic respiratory insufficiency patient
Pseudomonas aeruginosa [18] = assay: Antimicrobial activity against Pseudomonas aeruginosa 2A6 tracheal isolates from mechanically ventilated tuberculosis patient
Pseudomonas aeruginosa [19] = assay: Antimicrobial activity against Pseudomonas aeruginosa 65.68-3 tracheal isolates from mechanically ventilated tuberculosis patient
Pseudomonas aeruginosa [20] = assay: Antimicrobial activity against Pseudomonas aeruginosa 16D2 tracheal isolates from mechanically ventilated chronic respiratory insufficiency patient
Pseudomonas aeruginosa [21] = assay: Antimicrobial activity against Pseudomonas aeruginosa 2C1 tracheal isolates from mechanically ventilated tuberculosis patient
Pseudomonas aeruginosa [22] = assay: Antimicrobial activity against Pseudomonas aeruginosa 24D1 tracheal isolates from mechanically ventilated chronic respiratory insufficiency patient
Pseudomonas aeruginosa [23] = assay: Antimicrobial activity against Pseudomonas aeruginosa 24F4 tracheal isolates from mechanically ventilated chronic respiratory insufficiency patient
Pseudomonas aeruginosa [24] = assay: Antimicrobial activity against Pseudomonas aeruginosa 19F2 tracheal isolates from mechanically ventilated chronic respiratory insufficiency patient
Pseudomonas aeruginosa [25] = assay: Antimicrobial activity against Pseudomonas aeruginosa 13D6 tracheal isolates from mechanically ventilated chronic respiratory insufficiency patient
Pseudomonas aeruginosa [26] = assay: Antimicrobial activity against Pseudomonas aeruginosa 3B1 tracheal isolates from mechanically ventilated tuberculosis patient
Pseudomonas aeruginosa [27] = assay: Antimicrobial activity against Pseudomonas aeruginosa 19E1 tracheal isolates from mechanically ventilated chronic respiratory insufficiency patient
Pseudomonas aeruginosa [28] = assay: Antimicrobial activity against Pseudomonas aeruginosa 12A3 tracheal isolates from mechanically ventilated chronic respiratory insufficiency patient
Pseudomonas aeruginosa [29] = assay: Antimicrobial activity against Pseudomonas aeruginosa 19D10 tracheal isolates from mechanically ventilated chronic respiratory insufficiency patient
Pseudomonas aeruginosa [30] = assay: Antimicrobial activity against Pseudomonas aeruginosa 65.18-3 tracheal isolates from mechanically ventilated tuberculosis patient
Pseudomonas aeruginosa [31] = assay: Antimicrobial activity against Pseudomonas aeruginosa 10B3 tracheal isolates from mechanically ventilated chronic respiratory insufficiency patient
Pseudomonas aeruginosa [32] = assay: Antimicrobial activity against Pseudomonas aeruginosa 13D3 tracheal isolates from mechanically ventilated chronic respiratory insufficiency patient
Pseudomonas aeruginosa [33] = assay: Antimicrobial activity against Pseudomonas aeruginosa 5F2 tracheal isolates from mechanically ventilated chronic respiratory insufficiency patient
Pseudomonas aeruginosa [34] = assay: Antimicrobial activity against Pseudomonas aeruginosa 16D5 tracheal isolates from mechanically ventilated chronic respiratory insufficiency patient
Pseudomonas aeruginosa [35] = assay: Antimicrobial activity against Pseudomonas aeruginosa 65.18-1 tracheal isolates from mechanically ventilated tuberculosis patient
Pseudomonas aeruginosa [36] = assay: Antimicrobial activity against Pseudomonas aeruginosa 19C12 tracheal isolates from mechanically ventilated chronic respiratory insufficiency patient
Pseudomonas aeruginosa [37] = assay: Antimicrobial activity against Pseudomonas aeruginosa IC7 tracheal isolates from mechanically ventilated tuberculosis patient
Pseudomonas aeruginosa [38] = assay: Antimicrobial activity against Pseudomonas aeruginosa 19B1 tracheal isolates from mechanically ventilated chronic respiratory insufficiency patient
Pseudomonas aeruginosa [39] = assay: Antimicrobial activity against Pseudomonas aeruginosa 65.18-4 tracheal isolates from mechanically ventilated tuberculosis patient
Pseudomonas aeruginosa [40] = assay: Antimicrobial activity against Pseudomonas aeruginosa 19F1 tracheal isolates from mechanically ventilated chronic respiratory insufficiency patient
Pseudomonas aeruginosa [41] = assay: Antimicrobial activity against Pseudomonas aeruginosa IA5 tracheal isolates from mechanically ventilated tuberculosis patient
Pseudomonas aeruginosa [42] = assay: Antimicrobial activity against Pseudomonas aeruginosa 9A1 tracheal isolates from mechanically ventilated chronic respiratory insufficiency patient
Pseudomonas aeruginosa [43] = assay: Antimicrobial activity against Pseudomonas aeruginosa 1C9 tracheal isolates from mechanically ventilated tuberculosis patient
Pseudomonas aeruginosa [44] = assay: Antimicrobial activity against Pseudomonas aeruginosa 29H1 tracheal isolates from mechanically ventilated chronic respiratory insufficiency patient
Pseudomonas aeruginosa [45] = assay: Antimicrobial activity against Pseudomonas aeruginosa 65.38-4 tracheal isolates from mechanically ventilated tuberculosis patient
Pseudomonas aeruginosa [46] = assay: Antimicrobial activity against Pseudomonas aeruginosa 65.33-3 tracheal isolates from mechanically ventilated tuberculosis patient
Pseudomonas aeruginosa [47] = assay: Antimicrobial activity against Pseudomonas aeruginosa 2A1 tracheal isolates from mechanically ventilated tuberculosis patient
Pseudomonas aeruginosa [48] = assay: Antimicrobial activity against Pseudomonas aeruginosa 65.38-2 tracheal isolates from mechanically ventilated tuberculosis patient
Pseudomonas aeruginosa [49] = assay: Antimicrobial activity against Pseudomonas aeruginosa 19C5 tracheal isolates from mechanically ventilated chronic respiratory insufficiency patient

CC(C)(O/N=C(\C(=O)N[C@@H]1C(=O)N2C(C(=O)[O-])=C(C[n+]3ccccc3)CS[C@H]12)c1csc(N)n1)C(=O)O
Activity (Pseudomonas aeruginosa [1]): Active
Activity (Pseudomonas aeruginosa [2]): Active
Activity (Pseudomonas aeruginosa [3]): Active
Activity (Pseudomonas aeruginosa [4]): Active
Activity (Pseudomonas aeruginosa [5]): Active
Activity (Pseudomonas aeruginosa [6]): inactive
Activity (Pseudomonas aeruginosa [7]): Active
Activity (Pseudomonas aeruginosa [8]): Active
Activity (Pseudomonas aeruginosa [9]): Active
Activity (Pseudomonas aeruginosa [10]): Active
Activity (Pseudomonas aeruginosa [11]): Active
Activity (Pseudomonas aeruginosa [12]): Active
Activity (Pseudomonas aeruginosa [13]): Active
Activity (Pseudomonas aeruginosa [14]): Active
Activity (Pseudomonas aeruginosa [15]): Active
Activity (Pseudomonas aeruginosa [16]): Active
Activity (Pseudomonas aeruginosa [17]): Active
Activity (Pseudomonas aeruginosa [18]): inactive
Activity (Pseudomonas aeruginosa [19]): Active
Activity (Pseudomonas aeruginosa [20]): Active
Activity (Pseudomonas aeruginosa [21]): inactive
Activity (Pseudomonas aeruginosa [22]): Active
Activity (Pseudomonas aeruginosa [23]): Active
Activity (Pseudomonas aeruginosa [24]): Active
Activity (Pseudomonas aeruginosa [25]): Active
Activity (Pseudomonas aeruginosa [26]): Active
Activity (Pseudomonas aeruginosa [27]): Active
Activity (Pseudomonas aeruginosa [28]): Active
Activity (Pseudomonas aeruginosa [29]): Active
Activity (Pseudomonas aeruginosa [30]): Active
Activity (Pseudomonas aeruginosa [31]): Active
Activity (Pseudomonas aeruginosa [32]): Active
Activity (Pseudomonas aeruginosa [33]): Active
Activity (Pseudomonas aeruginosa [34]): Active
Activity (Pseudomonas aeruginosa [35]): Active
Activity (Pseudomonas aeruginosa [36]): Active
Activity (Pseudomonas aeruginosa [37]): Active
Activity (Pseudomonas aeruginosa [38]): Active
Activity (Pseudomonas aeruginosa [39]): Active
Antimicrobial activity (Pseudomonas aeruginosa [40]): Active
Activity (Pseudomonas aeruginosa [41]): Active
Activity (Pseudomonas aeruginosa [42]): Active

CCn1cc(C(=O)O)c(=O)c2cc(F)c(N3CCNCC3)cc21
Activity (Pseudomonas aeruginosa [2]): inactive
Activity (Pseudomonas aeruginosa [3]): Active
Activity (Pseudomonas aeruginosa [4]): Active
Activity (Pseudomonas aeruginosa [5]): Active
Activity (Pseudomonas aeruginosa [6]): Active
Activity (Pseudomonas aeruginosa [7]): Active
Activity (Pseudomonas aeruginosa [8]): Active
Activity (Pseudomonas aeruginosa [9]): Active
Activity (Pseudomonas aeruginosa [10]): Active
Activity (Pseudomonas aeruginosa [14]): inactive
Activity (Pseudomonas aeruginosa [43]): Active
Activity (Pseudomonas aeruginosa [44]): inactive
Activity (Pseudomonas aeruginosa [45]): Active
Activity (Pseudomonas aeruginosa [18]): Active
Activity (Pseudomonas aeruginosa [19]): Active
Activity (Pseudomonas aeruginosa [21]): Active
Activity (Pseudomonas aeruginosa [22]): Active
Activity (Pseudomonas aeruginosa [23]): Active
Activity (Pseudomonas aeruginosa [26]): Active
Activity (Pseudomonas aeruginosa [28]): Active
Activity (Pseudomonas aeruginosa [30]): Active
Activity (Pseudomonas aeruginosa [31]): Active
Activity (Pseudomonas aeruginosa [33]): Active
Activity (Pseudomonas aeruginosa [46]): Active
Activity (Pseudomonas aeruginosa [47]): Active
Activity (Pseudomonas aeruginosa [34]): Active
Activity (Pseudomonas aeruginosa [35]): Active
Activity (Pseudomonas aeruginosa [37]): Active
Activity (Pseudomonas aeruginosa [48]): Active
Activity (Pseudomonas aeruginosa [39]): Active
Activity (Pseudomonas aeruginosa [41]): Active
Activity (Pseudomonas aeruginosa [42]): Active
Activity (Pseudomonas aeruginosa [49]): Active

O=C(O)c1cn(C2CC2)c2cc(N3CCNCC3)c(F)cc2c1=O
Activity (Pseudomonas aeruginosa [3]): Active
Activity (Pseudomonas aeruginosa [4]): Active
Activity (Pseudomonas aeruginosa [5]): Active
Activity (Pseudomonas aeruginosa [6]): Active
Activity (Pseudomonas aeruginosa [7]): Active
Activity (Pseudomonas aeruginosa [8]): Active
Activity (Pseudomonas aeruginosa [9]): Active
Activity (Pseudomonas aeruginosa [10]): Active
Activity (Pseudomonas aeruginosa [14]): inactive
Activity (Pseudomonas aeruginosa [43]): Active
Activity (Pseudomonas aeruginosa [44]): inactive
Activity (Pseudomonas aeruginosa [45]): Active
Activity (Pseudomonas aeruginosa [18]): Active
Activity (Pseudomonas aeruginosa [19]): Active
Activity (Pseudomonas aeruginosa [21]): Active
Activity (Pseudomonas aeruginosa [22]): Active
Activity (Pseudomonas aeruginosa [23]): Active
Activity (Pseudomonas aeruginosa [26]): Active
Activity (Pseudomonas aeruginosa [28]): Active
Activity (Pseudomonas aeruginosa [30]): Active
Activity (Pseudomonas aeruginosa [31]): Active
Activity (Pseudomonas aeruginosa [33]): Active
Activity (Pseudomonas aeruginosa [46]): Active
Activity (Pseudomonas aeruginosa [47]): Active
Activity (Pseudomonas aeruginosa [34]): Active
Activity (Pseudomonas aeruginosa [35]): Active
Activity (Pseudomonas aeruginosa [37]): Active
Activity (Pseudomonas aeruginosa [48]): Active
Activity (Pseudomonas aeruginosa [39]): Active
Activity (Pseudomonas aeruginosa [41]): Active
Activity (Pseudomonas aeruginosa [42]): Active
Activity (Pseudomonas aeruginosa [49]): Active

C[C@@H](O)[C@H]1C(=O)N2C(C(=O)O)=C(SCCNC=N)C[C@H]12
Activity (Pseudomonas aeruginosa [1]): Active
Activity (Pseudomonas aeruginosa [2]): Active
Activity (Pseudomonas aeruginosa [3]): Active
Activity (Pseudomonas aeruginosa [4]): Active
Activity (Pseudomonas aeruginosa [5]): inactive
Activity (Pseudomonas aeruginosa [6]): inactive
Activity (Pseudomonas aeruginosa [7]): Active
Activity (Pseudomonas aeruginosa [8]): inactive
Activity (Pseudomonas aeruginosa [9]): Active
Activity (Pseudomonas aeruginosa [10]): inactive
Activity (Pseudomonas aeruginosa [11]): Active
Activity (Pseudomonas aeruginosa [12]): Active
Activity (Pseudomonas aeruginosa [13]): Active
Activity (Pseudomonas aeruginosa [14]): Active
Activity (Pseudomonas aeruginosa [15]): Active
Activity (Pseudomonas aeruginosa [16]): Active
Activity (Pseudomonas aeruginosa [17]): Active
Activity (Pseudomonas aeruginosa [18]): inactive
Activity (Pseudomonas aeruginosa [19]): inactive
Activity (Pseudomonas aeruginosa [20]): Active
Activity (Pseudomonas aeruginosa [21]): inactive
Activity (Pseudomonas aeruginosa [23]): Active
Activity (Pseudomonas aeruginosa [24]): Active
Activity (Pseudomonas aeruginosa [25]): Active
Activity (Pseudomonas aeruginosa [26]): inactive
Activity (Pseudomonas aeruginosa [27]): Active
Activity (Pseudomonas aeruginosa [28]): Active
Activity (Pseudomonas aeruginosa [29]): Active
Activity (Pseudomonas aeruginosa [30]): inactive
Activity (Pseudomonas aeruginosa [31]): Active
Activity (Pseudomonas aeruginosa [32]): Active
Activity (Pseudomonas aeruginosa [33]): Active
Activity (Pseudomonas aeruginosa [46]): inactive
Activity (Pseudomonas aeruginosa [47]): inactive
Activity (Pseudomonas aeruginosa [34]): Active
Activity (Pseudomonas aeruginosa [35]): Active
Activity (Pseudomonas aeruginosa [36]): Active
Activity (Pseudomonas aeruginosa [37]): inactive
Activity (Pseudomonas aeruginosa [48]): inactive
Activity (Pseudomonas aeruginosa [38]): Active
Activity (Pseudomonas aeruginosa [39]): inactive
Antimicrobial activity (Pseudomonas aeruginosa [40]): Active
Activity (Pseudomonas aeruginosa [42]): Active

CO/N=C(\C(=O)N[C@@H]1C(=O)N2C(C(=O)[O-])=C(C[N+]3(C)CCCC3)CS[C@H]12)c1csc(N)n1
Activity (Pseudomonas aeruginosa [1]): Active
Activity (Pseudomonas aeruginosa [3]): Active
Activity (Pseudomonas aeruginosa [4]): Active
Activity (Pseudomonas aeruginosa [5]): Active
Activity (Pseudomonas aeruginosa [7]): Active
Activity (Pseudomonas aeruginosa [8]): Active
Activity (Pseudomonas aeruginosa [9]): Active
Activity (Pseudomonas aeruginosa [10]): Active
Activity (Pseudomonas aeruginosa [11]): Active
Activity (Pseudomonas aeruginosa [12]): Active
Activity (Pseudomonas aeruginosa [13]): Active
Activity (Pseudomonas aeruginosa [14]): Active
Activity (Pseudomonas aeruginosa [43]): Active
Activity (Pseudomonas aeruginosa [15]): Active
Activity (Pseudomonas aeruginosa [44]): inactive
Activity (Pseudomonas aeruginosa [16]): Active
Activity (Pseudomonas aeruginosa [45]): Active
Activity (Pseudomonas aeruginosa [19]): Active
Activity (Pseudomonas aeruginosa [20]): Active
Activity (Pseudomonas aeruginosa [21]): inactive
Activity (Pseudomonas aeruginosa [22]): Active
Activity (Pseudomonas aeruginosa [24]): Active
Activity (Pseudomonas aeruginosa [25]): Active
Activity (Pseudomonas aeruginosa [26]): Active
Activity (Pseudomonas aeruginosa [27]): Active
Activity (Pseudomonas aeruginosa [28]): Active
Activity (Pseudomonas aeruginosa [29]): Active
Activity (Pseudomonas aeruginosa [30]): Active
Activity (Pseudomonas aeruginosa [31]): Active
Activity (Pseudomonas aeruginosa [32]): Active
Activity (Pseudomonas aeruginosa [33]): Active
Activity (Pseudomonas aeruginosa [47]): Active
Activity (Pseudomonas aeruginosa [34]): Active
Activity (Pseudomonas aeruginosa [35]): Active
Activity (Pseudomonas aeruginosa [36]): Active
Activity (Pseudomonas aeruginosa [37]): Active
Activity (Pseudomonas aeruginosa [38]): Active
Activity (Pseudomonas aeruginosa [39]): Active
Antimicrobial activity (Pseudomonas aeruginosa [40]): Active
Activity (Pseudomonas aeruginosa [41]): Active
Activity (Pseudomonas aeruginosa [42]): Active
Activity (Pseudomonas aeruginosa [49]): Active
